The source made the active and inactive calls. The rule behind the calls is not given here.

The target in data set [1] is T1, Glucagon-like peptide 1 receptor (Homo sapiens, UniProt P43220). Description: Agonist activity at N-terminal hemagglutinin-tagged human GLP-1R expressed in CHO cells co-transfected with pcDNA3.0 assessed as increase in intracellular cAMP accumulation incubated for 30 mins by microplate reader analysis. Type of data set: functional, cell-based.
Data set [2] has as its target T2, hERG (KCNH2) (Homo sapiens, UniProt Q12809). Description: Inhibition of hERG at 1 uM at -80 mV holding potential by whole-cell patch clamp analysis relative to control. Type of data set: toxicity.
For data set [3], the target named is T2, hERG (KCNH2). Nature of the data set: Inhibition of hERG at 10 uM at -80 mV holding potential by whole-cell patch clamp analysis relative to control. Format: toxicity. Background: Block of hERG is tested as a sign of cardiac risk.
Data set [4] in a line: Half life in Sprague-Dawley rat at 5 mg/kg, po measured up to 24 hrs by LC-MS/MS analysis. Format: ADME, organism-based. Particulars: in vivo.
Data set [5] is described as follows: Cmax in Sprague-Dawley rat at 5 mg/kg, po measured up to 24 hrs by LC-MS/MS analysis. Type of data set: ADME, organism-based. The conditions noted are these: in vivo.
Data set [6] can be described thus: AUC (0 to infinity) in Sprague-Dawley rat at 5 mg/kg, po measured up to 24 hrs by LC-MS/MS analysis. Particulars: in vivo. Type of data set: ADME, organism-based.
The nature of data set [7]: Observed apparent oral clearance in Sprague-Dawley rat at 5 mg/kg, po measured up to 24 hrs by LC-MS/MS analysis. Format: ADME, organism-based. Particulars: in vivo.
The nature of data set [8]: Fraction of the dose absorbed in Sprague-Dawley rat at 5 mg/kg, po measured up to 24 hrs by LC-MS/MS analysis. Particulars: in vivo, read-out: Fabs. Format: ADME, organism-based.
The target in data set [9] is T1, Glucagon-like peptide 1 receptor. Nature of the data set: Binding affinity to GLP-1R (unknown origin) at 500 nM measured at 30 to 120 mins by HTRF analysis relative to control. The conditions noted are these: time 30-120 min. Background: Time-resolved FRET reads energy transfer from a long-lived donor to a nearby acceptor.
Data set [10] shares this target. Description: Binding affinity to GLP-1R (unknown origin) at 5000 nM measured at 30 to 120 mins by HTRF analysis relative to control. Particulars: filed as agonist, time 30-120 min.
Data set [11] has the same target. Nature of the data set: Agonist activity at human GLP-1R expressed in HEK293 cells assessed as beta-arrestin2 recruitment incubated for 5 mins by bioluminescence based Envision multiplate reader analysis. Format: functional, cell-based. In general terms: Arrestin recruitment assays detect the binding of arrestin to an activated receptor.
The target is the same in data set [12]. Description: Agonist activity at human GLP-1R expressed in HEK293 cells assessed as beta-arrestin1 recruitment incubated for 5 mins by bioluminescence based Envision multiplate reader analysis. Type of data set: functional, cell-based.
The target of data set [13] is T3, Glucagon-like peptide 2 receptor (Homo sapiens, UniProt O95838).
T3 sequence (O95838 whole entry): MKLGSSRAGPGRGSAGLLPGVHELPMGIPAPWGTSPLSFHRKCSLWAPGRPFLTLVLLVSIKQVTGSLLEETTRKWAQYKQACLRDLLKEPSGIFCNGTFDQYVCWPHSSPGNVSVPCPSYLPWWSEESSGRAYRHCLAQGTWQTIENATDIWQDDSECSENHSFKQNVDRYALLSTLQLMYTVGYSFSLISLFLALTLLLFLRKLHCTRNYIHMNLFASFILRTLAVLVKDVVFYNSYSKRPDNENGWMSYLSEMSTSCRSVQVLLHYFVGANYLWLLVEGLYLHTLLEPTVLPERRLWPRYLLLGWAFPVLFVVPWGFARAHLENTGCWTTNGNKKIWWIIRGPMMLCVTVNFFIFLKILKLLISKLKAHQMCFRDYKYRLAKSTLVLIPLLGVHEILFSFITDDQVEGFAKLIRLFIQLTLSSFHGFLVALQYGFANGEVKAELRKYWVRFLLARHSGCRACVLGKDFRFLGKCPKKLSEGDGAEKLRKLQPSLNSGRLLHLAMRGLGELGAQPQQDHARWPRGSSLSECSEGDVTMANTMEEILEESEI
Nature of the data set: Agonist activity at N-terminal HA-tagged human GLP-2R expressed in CHO cells co-transfected with pcDNA3.0 assessed as effect on cAMP accumulation incubated for 30 mins by microplate reader analysis. Format: functional, cell-based.

For data set [14], the target named is T4, Gastric inhibitory polypeptide receptor (Homo sapiens, UniProt P48546).
T4 sequence (P48546 whole entry): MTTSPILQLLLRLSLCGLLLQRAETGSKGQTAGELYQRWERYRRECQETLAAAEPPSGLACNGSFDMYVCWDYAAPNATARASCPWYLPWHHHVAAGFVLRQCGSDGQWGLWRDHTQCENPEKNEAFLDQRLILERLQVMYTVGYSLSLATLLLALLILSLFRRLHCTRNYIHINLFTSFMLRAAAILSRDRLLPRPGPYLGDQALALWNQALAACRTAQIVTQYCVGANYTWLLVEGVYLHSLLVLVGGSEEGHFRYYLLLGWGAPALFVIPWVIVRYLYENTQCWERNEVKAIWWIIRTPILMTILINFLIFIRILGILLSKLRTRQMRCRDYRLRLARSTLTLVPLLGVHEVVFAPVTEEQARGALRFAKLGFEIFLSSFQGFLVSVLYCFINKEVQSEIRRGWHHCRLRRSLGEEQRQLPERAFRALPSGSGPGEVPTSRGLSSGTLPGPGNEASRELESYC
Nature of the data set: Agonist activity at N-terminal HA-tagged human GIPR expressed in CHO cells co-transfected with pcDNA3.0 assessed as effect on cAMP accumulation incubated for 30 mins by microplate reader analysis. Format: functional, cell-based.

Another data set has as its target Glucagon receptor (Homo sapiens, UniProt P47871). Nature of the data set: Agonist activity at N-terminal HA-tagged human GCGR expressed in CHO cells co-transfected with pcDNA3.0 assessed as effect on cAMP accumulation incubated for 30 mins by microplate reader analysis. Format: functional, cell-based.
Data set [15] in a line: Induction of insulin release in human EndoC-betaH5 cells incubated for 1 hr by ELISA analysis. Format: functional, cell-based. Particulars: EndoC-betaH5, 1 h.
Data set [16] concerns Rattus norvegicus. Description: Antidiabetic activity in human GLP-1R knockin Sprague-Dawley rat model assessed as increase in rate of glucose disappearance at 1 to 10 mg/kg, po pretreated with compound for 15 mins by IPGTT analysis. The conditions noted are these: dose 1-10 mg/kg. Format: functional, organism-based.
Data set [17] has as its system Rattus norvegicus. Nature of the data set: Antidiabetic activity in human GLP-1R knockin Sprague-Dawley rat model assessed as increase in rate of insulin secretion at 1 to 10 mg/kg, po pretreated with compound for 15 mins by IPGTT analysis. Format: functional, organism-based. The conditions noted are these: dose 1-10 mg/kg.
Data set [18] concerns Rattus norvegicus. Nature of the data set: Antidiabetic activity in human GLP-1R knockin po dosed Sprague-Dawley rat model assessed as increase in glucose-simulated insulin secretion pretreated with compound for 15 mins followed by D-glucose administration and measured after 30 mins by ELISA analysis. Format: functional, organism-based. Particulars: dose 1-10 mg/kg, time 45.0 min.

A short description of another data set: in vivo. Particulars: Sprague-Dawley, rat, po, 5 mg/kg.

T1 sequence (P43220 whole entry): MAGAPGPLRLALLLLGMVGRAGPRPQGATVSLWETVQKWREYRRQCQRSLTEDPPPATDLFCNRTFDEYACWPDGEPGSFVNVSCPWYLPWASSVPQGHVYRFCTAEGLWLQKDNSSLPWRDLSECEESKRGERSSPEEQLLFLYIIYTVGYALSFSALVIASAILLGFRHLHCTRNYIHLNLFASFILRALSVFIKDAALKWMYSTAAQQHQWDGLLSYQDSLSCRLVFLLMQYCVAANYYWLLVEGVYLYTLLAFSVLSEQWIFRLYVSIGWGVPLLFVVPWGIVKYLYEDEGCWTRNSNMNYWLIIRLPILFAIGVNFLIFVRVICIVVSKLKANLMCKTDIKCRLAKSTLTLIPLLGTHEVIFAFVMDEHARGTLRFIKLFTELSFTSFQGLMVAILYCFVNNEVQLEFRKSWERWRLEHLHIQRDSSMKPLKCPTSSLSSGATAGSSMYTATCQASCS
T2 sequence (Q12809 whole entry): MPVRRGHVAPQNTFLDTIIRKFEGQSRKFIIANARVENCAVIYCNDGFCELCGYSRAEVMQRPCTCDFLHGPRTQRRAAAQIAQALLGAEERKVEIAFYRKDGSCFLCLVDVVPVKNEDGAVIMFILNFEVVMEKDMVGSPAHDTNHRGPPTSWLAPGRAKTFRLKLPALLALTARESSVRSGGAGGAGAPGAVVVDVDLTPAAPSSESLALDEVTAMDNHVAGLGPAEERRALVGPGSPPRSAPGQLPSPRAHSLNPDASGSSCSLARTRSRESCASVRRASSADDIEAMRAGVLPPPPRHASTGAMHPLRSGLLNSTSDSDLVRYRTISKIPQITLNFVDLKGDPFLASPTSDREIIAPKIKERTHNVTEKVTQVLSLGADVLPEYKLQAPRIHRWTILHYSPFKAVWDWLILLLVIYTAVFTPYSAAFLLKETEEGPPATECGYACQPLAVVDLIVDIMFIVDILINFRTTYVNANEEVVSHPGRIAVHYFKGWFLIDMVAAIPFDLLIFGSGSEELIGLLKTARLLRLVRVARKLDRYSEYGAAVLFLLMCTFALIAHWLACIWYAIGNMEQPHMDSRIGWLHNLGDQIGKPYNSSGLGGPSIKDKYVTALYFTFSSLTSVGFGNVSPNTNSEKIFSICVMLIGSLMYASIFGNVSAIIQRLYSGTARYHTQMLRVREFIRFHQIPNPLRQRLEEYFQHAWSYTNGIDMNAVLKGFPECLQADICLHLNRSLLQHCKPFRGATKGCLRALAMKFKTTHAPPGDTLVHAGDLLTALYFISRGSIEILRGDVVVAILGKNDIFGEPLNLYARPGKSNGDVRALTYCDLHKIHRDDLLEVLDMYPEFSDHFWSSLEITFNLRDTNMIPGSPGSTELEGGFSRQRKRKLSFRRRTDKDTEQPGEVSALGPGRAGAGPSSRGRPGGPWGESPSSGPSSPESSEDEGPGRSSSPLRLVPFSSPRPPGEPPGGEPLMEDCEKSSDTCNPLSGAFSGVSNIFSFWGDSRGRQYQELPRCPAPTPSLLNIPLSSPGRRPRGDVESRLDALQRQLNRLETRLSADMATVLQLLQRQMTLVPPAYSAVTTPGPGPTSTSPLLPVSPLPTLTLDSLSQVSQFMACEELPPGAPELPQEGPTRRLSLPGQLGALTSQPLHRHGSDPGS
Sequence of Glucagon receptor (P47871 whole entry): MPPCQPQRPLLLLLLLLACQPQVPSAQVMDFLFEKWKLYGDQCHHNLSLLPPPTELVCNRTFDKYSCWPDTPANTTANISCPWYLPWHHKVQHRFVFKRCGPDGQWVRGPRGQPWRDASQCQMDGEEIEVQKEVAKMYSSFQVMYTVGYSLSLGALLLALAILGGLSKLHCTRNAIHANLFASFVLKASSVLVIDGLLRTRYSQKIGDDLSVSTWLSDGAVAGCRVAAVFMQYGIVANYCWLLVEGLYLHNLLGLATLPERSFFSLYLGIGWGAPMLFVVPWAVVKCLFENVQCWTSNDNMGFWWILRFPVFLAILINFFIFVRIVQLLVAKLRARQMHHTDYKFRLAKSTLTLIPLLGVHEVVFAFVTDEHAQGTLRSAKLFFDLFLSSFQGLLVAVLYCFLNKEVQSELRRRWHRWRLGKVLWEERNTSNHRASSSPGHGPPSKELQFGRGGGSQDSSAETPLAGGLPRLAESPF

The EC50 is the concentration giving half of the maximal effect. As a reminder, the inhibition is the percentage by which the read-out fell short of the control. The low end stands for little suppression, the high end for strong suppression. For orientation: half-life means how long it takes for the measured level to halve. A lower half-life goes with rapid decline. Usually Cmax stands for the maximum level reached in the sampled fluid or tissue. A word on the AUC(0-inf): it is the area under the concentration-time curve extrapolated to infinity. In general, CL/F refers to the apparent clearance, not corrected for the fraction that reaches the circulation. What is called Tmax is the time at which the peak concentration occurs. Consider `O=C(O)c1ccc2nc(CN3CC=C(c4cccc(OCc5ccc(C6CC(F)(F)C6)cc5F)n4)CC3)n(C[C@@H]3CCO3)c2n1`, for which the EC50 in data set [1] was 0.048 nM; in data set [11], 864 nM; in data set [12] it was 2020 nM; in data set [13] it was above 20000 nM; in data set [14], above 20000 nM; on Glucagon receptor it was above 20000 nM. In addition, the EC50 in [15] was found to be 22.7 nM. For the same compound, the inhibition at 1 µM at hERG (KCNH2) [2] amounted to 0.6%. Moreover, at 10 µM the inhibition against hERG (KCNH2) [3] was 37.6%. Besides, in [4], the half-life is 3.32 h. Further, the peak level in data set [5] (Cmax) was 256 ng/mL. In data set [6], the AUC(0-inf) was 1380 ng·h/mL. Further, in data set [7], the CL/F was found to be 65.8 mL/min/kg. Also, the Fa at 24 h in data set [8] was 54.2%. Also, the Activity in data set [9] was 35.5%; in data set [10], 71.2%; in the data set on Rattus norvegicus [18], “Dose-dependent-effect”. The outcome in the data set on Rattus norvegicus [16] and in the data set on Rattus norvegicus [17] was Active. Besides, the Tmax at 24 h in the data set “in vivo” was 2.67 h.

(Values after ChEMBL document CHEMBL6109144, “Discovery of New Difluorocyclobutyl Derivatives as Effective Glucagon-Like Peptide-1 Receptor Agonists with Reduced hERG Inhibitory Activities” (J Med Chem, 2025).)
